# Experiments:
# Test in all cases: Transactivation test (apparent Kd by Schild regression versus reference antagonist), luciferase reporter in HeLa cells
# Format in all cases: cell-based
# RAR alpha = target: T1, RAR alpha (Homo sapiens, UniProt P10276); conditions: HeLa stable transfectants ERE-βGlob-Luc-SV-Neo and RAR alpha ER-DBD-puro, 18 hours incubation, read-out: RAR alpha Kdapp
# T1 sequence (P10276 183-417 limits assumed): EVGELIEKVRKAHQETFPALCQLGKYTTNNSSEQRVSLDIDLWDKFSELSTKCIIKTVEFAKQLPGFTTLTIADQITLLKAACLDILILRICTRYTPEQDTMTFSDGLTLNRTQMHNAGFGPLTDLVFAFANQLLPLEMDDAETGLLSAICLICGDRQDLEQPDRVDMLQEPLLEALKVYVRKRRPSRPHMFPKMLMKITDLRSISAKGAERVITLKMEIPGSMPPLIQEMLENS
# Method: (§1) Activation of receptors by an agonist (activator) in HeLa cells leads to the expression of a reporter gene, luciferase, which generates light in the presence of a substrate. Therefore the activation of receptors can be measured by quantifying the luminescence produced after incubation of the cells in the presence of a reference antagonist. The activator products displace the antagonist from its site, thus permitting the receptor to be activated. The activity is measured by quantifying the increase in light produced. This measurement determines the activating activity of the useful compound in the invention.
# (§2) In this study, a constant is determined that represents the affinity of the molecule for the receptor. This value can fluctuate according to the basal activity and expression of the receptor; it is designated apparent Kd (KdApp).
# (§3) To determine this constant, cross curves are created of the product to be tested (4′-(3-hydroxy-propyl)-3′-(5,5,8,8-tetramethyl-5,6,7,8-tetrahydro-naphthalen-2-yl)-biphenyl-4-carboxylic acid and 4′-(2,3-dihydroxy-propyl)-3′-(5,5,8,8-tetramethyl-5,6,7,8-tetrahydro-naphtalen-2-yl)-biphenyl-4-carboxylic) acid versus a reference antagonist also called reference ligand, 4-(5,5-dimethyl-8-p-tolyl-5,6-dihydro-naphthalen-2-ylethynyl)-benzoic acid. The product to be tested is used at 10 concentrations and the reference antagonist at 7 concentrations. In each well (of a 96-well plate), the cells are in contact with one concentration of the product to be tested and one concentration of the reference antagonist.
# (§4) Full agonist controls, also called 100% controls, (4-[2-(5,5,8,8 tetramethyl-5,6,7,8 tetrahydronaphthalene-2-yl)propenyl]-benzoic acid) and inverse agonist controls, also called 0% controls, (4-{(E)-3-[4-(4-tert-butyl-phenyl)-5,5,8,8-tetramethyl-5,6,7,8-tetrahydro-naphthalen-2-yl]-3-oxo-propenyl}-benzoic acid) are also measured.
# (§5) These cross curves allow determining the AC50 (concentration at which 50% activation of the receptor is observed) of the reference ligand at different concentrations of the product to be tested. These AC50s are used to calculate the Schild regression by plotting a line conforming to the Schild equation (“Quantitation in receptor pharmacology” Terry P. Kenakin, Receptors and Channels, 2001, 7, 371-385).
# (§6) In the case of an agonist, the AC50 is calculated by plotting the curve of the product at the concentration of the reference ligand giving 80% activation. The percentage of activation that corresponds to the maximum level of activity obtained is also measured.
# (§7) The HeLa cell lines used are stable transfectants containing the plasmids ERE-βGlob-Luc-SV-Neo (reporter gene) and RAR (α, β, γ) ER-DBD-puro. These cells are inoculated onto 96-well plates in an amount of 10,000 cells per well in 100 μl DMEM medium with no phenol red and supplemented with 10% delipidated fetal bovine serum. The plates are then incubated at 37° C., 7% CO2 for 4 hours.
# (§8) The different dilutions of the product to be tested, the reference ligand (4-(5,5-dimethyl-8-p-tolyl-5,6-dihydro-naphthalen-2-ylethynyl)-benzoic acid), the 100% control (100 nM 4-[2-(5,5,8,8 tetramethyl-5,6,7,8 tetrahydronaphthalene-2-yl)propenyl]-benzoic acid) and the 0% control (500 nM 4-{(E)-3-[4-(4-tert-butyl-phenyl)-5,5,8,8-tetramethyl-5,6,7,8-tetrahydro-naphthalen-2-yl]-3-oxo-propenyl}-benzoic acid) are added in an amount of 5 μl per well. The plates are then incubated 18 hours at 37° C., 7% CO2.
# (§9) The culture medium is removed by turning over and 100 μl of a 1:1 PBS (phosphate buffer solution)/luciferin mixture is added to each well. After 5 minutes, the plates are read by the luminescence reader.
# RAR beta = target: T2, RAR beta (Homo sapiens, UniProt P10826); conditions: HeLa stable transfectants ERE-βGlob-Luc-SV-Neo and RAR beta ER-DBD-puro, 18 hours incubation, read-out: RAR beta Kdapp
# T2 sequence (P10826 183-417 limits assumed): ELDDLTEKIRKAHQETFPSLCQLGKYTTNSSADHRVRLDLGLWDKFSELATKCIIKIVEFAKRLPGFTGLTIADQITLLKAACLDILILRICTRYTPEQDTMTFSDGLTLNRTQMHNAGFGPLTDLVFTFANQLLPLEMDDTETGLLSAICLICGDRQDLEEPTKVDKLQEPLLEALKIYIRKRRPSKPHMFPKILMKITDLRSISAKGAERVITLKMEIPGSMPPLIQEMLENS
# Method: as §1, §2, §3, §4, §5, §6, §7, §8, §9
# RAR gamma = target: T3, RAR gamma (Homo sapiens, UniProt P13631); conditions: HeLa stable transfectants ERE-βGlob-Luc-SV-Neo and RAR gamma ER-DBD-puro, 18 hours incubation, read-out: RAR gamma Kdapp
# T3 sequence (P13631 185-454 limits assumed): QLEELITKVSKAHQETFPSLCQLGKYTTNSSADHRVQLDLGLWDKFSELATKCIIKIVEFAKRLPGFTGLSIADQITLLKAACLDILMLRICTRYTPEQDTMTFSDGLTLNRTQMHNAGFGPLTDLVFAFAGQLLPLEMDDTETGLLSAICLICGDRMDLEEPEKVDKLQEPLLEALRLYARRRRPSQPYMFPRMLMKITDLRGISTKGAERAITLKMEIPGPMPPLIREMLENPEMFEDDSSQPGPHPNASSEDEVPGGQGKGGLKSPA
# Method: as §1, §2, §3, §4, §5, §6, §7, §8, §9
SMILES,Kd (RAR alpha) [nM],Kd (RAR beta) [nM],Kd (RAR gamma) [nM]
CC1(C)CCC(C)(C)c2c(O)cc(C#Cc3ccc(C(=O)O)c(O)c3)cc21 [Compound 1],120,4,4
CC1(C)CCC(C)(C)c2c(OCC3CC3)cc(C#Cc3ccc(C(=O)O)cn3)cc21 [Compound 2],30,2,4

# Source: US10377694B2, “Bi-aromatic propynyl compounds, pharmaceutical and cosmetic compositions containing them and uses thereof” (GALDERMA RESEARCH & DEVELOPMENT, priority 2016, dated 2019)
